In patent US20210317112A1, “HETEROCYCLIC COMPOUNDS AS PESTICIDES” (Bayer Aktiengesellschaft, priority 2017, published 2021):
Read-outs that look alike come from different tables or passages of the source.

What was measured:
Format in all cases: in vivo
[1] = system: brown planthopper (Nilaparvata lugens); assay: Nilaparvata lugens spray test (solvent 52.5 acetone / 7 DMF); conditions: 96 h, application rate 500 g/ha, rice plants, after 4 days
Procedure: Nilaparvata lugens—Spray Test Solvent: 52.5 parts by weight of acetone • 7 parts by weight of dimethylformamide Emulsifier: alkylaryl polyglycolether
(§1) To produce a suitable preparation of active compound, 1 part by weight of active compound is mixed with the stated amount of solvents and is diluted with water, containing an emulsifier concentration of 1000 ppm, to the desired concentration. Further test concentrations are prepared by dilution with emulsifier containing water. Ammonium salt and/or penetration enhancer in a dosage of 1000 ppm are added to the desired concentration if necessary.
Rice plants (Oryza sativa) are treated by being sprayed with the desired concentration of the active compound and are infested with larvae of the brown planthopper (Nilaparvata lugens).
(§2) After 4 days mortality in % is determined. 100% means all planthoppers have been killed and 0% means none of the planthoppers have been killed.

[2] = system: southern green stink bug (Nezara viridula); assay: whole plant or invertebrate; conditions: in Hordeum vulgare, 96 h, read-out: mortality in %
Procedure: Nezara viridula—Spray Test Solvent: 52.5 parts by weight of acetone • 7 parts by weight of dimethylformamide Emulsifier: alkylaryl polyglycolether
To produce a suitable preparation of active compound, 1 part by weight of active compound is mixed with the stated amount of solvent, and the concentrate is diluted with water, containing an emulsifier concentration of 1000 ppm, to the desired concentration. Ammonium salt and/or penetration enhancer in a dosage of 1000 ppm are added to the desired concentration if necessary.
(§3) Barley plants (Hordeum vulgare) infested with larvae of the southern green stink bug (Nezara viridula) are sprayed with a test solution containing the desired concentration of the active ingredient.
(§4) After 4 days mortality in % is determined. 100% means all the stink bugs have been killed; 0% means none of the stink bugs have been killed.

[3] = system: two spotted spidermite (Tetranychus urticae); assay: whole plant or invertebrate; conditions: in Phaseolus vulgaris, foliar, 144 h, read-out: mortality in %
Procedure: Tetranychus urticae—Spray Test OP-Resistant Solvent: 78.0 parts by weight acetone • 1.5 parts by weight dimethylformamide Emulsifier: alkylarylpolyglycol ether
as §1, with “water.” for “water. Ammonium salt and/or penetration enhancer in a dosage of 1000 ppm are added to the desired concentration if necessary.”
French bean (Phaseolus vulgaris) leaf disks infected with all instars of the two spotted spidermite (Tetranychus urticae), are sprayed with a preparation of the active ingredient of the desired concentration.
After 6 days mortality in % is determined. 100% means all spider mites have been killed and 0% means none of the spider mites have been killed.

[4] = system: mustard beetle larvae (Phaedon cochleariae); assay: Phaedon cochleariae spray test; conditions: in Brassica rapa, foliar, 168 h, read-out: mortality in %
Procedure: Phaedon cochleariae—Spray Test Solvent: 78.0 parts by weight of acetone • • 1.5 parts by weight of dimethylformamide Emulsifier: alkylarylpolyglycol ether
as §1, with “water.” for “water. Ammonium salt and/or penetration enhancer in a dosage of 1000 ppm are added to the desired concentration if necessary.”
Chinese cabbage (Brassica pekinensis) leaf disks are sprayed with a preparation of the active ingredient of the desired concentration. Once dry, the leaf disks are infested with mustard beetle larvae (Phaedon cochleariae).
After 7 days mortality in % is determined. 100% means all beetle larvae have been killed and 0% means none of the beetle larvae have been killed.

[5] = system: southern green stink bug (Nezara viridula); assay: whole plant or invertebrate; conditions: in Hordeum vulgare, 96 h, read-out: mortality in %; remark: listed apart in the source
Procedure: Nezara viridula—Spray Test Solvent: 78.0 parts by weight of acetone • • 1.5 parts by weight of dimethylformamide Emulsifier: alkylarylpolyglycol ether
(§5) To produce a suitable preparation of active compound, 1 part by weight of active compound is mixed with the stated amount of solvent, and the concentrate is diluted with water, containing an emulsifier concentration of 1000 ppm, to the desired concentration. Further test concentrations are prepared by dilution with emulsifier containing water.
as §3, §4

[6] = system: brown planthopper (Nilaparvata lugens); assay: Nilaparvata lugens spray test (solvent 78.0 acetone / 1.5 DMF); conditions: 96 h, application rate 500 g/ha, rice plants, after 4 days
Procedure: Nilaparvata lugens—Spray Test Solvent: 78.0 parts by weight of acetone • • 1.5 parts by weight of dimethylformamide Emulsifier: alkylarylpolyglycol ether
as §5, with “solvents” for “solvent,”, “and” for “and the concentrate”
Rice plants (Oryza sativa) are sprayed with a preparation of the active ingredient of the desired concentration and the plants are infested with the brown planthopper (Nilaparvata lugens).
as §2

[7] = system: green peach aphid (Myzus persicae); assay: whole plant or invertebrate; conditions: po, 120 h, read-out: mortality in %
Procedure: Myzus persicae—Oral Test Solvent: 100 parts by weight acetone
To produce a suitable preparation of active compound, 1 part by weight of active compound is mixed with the stated amount of solvent, and the concentrate is diluted with water to the desired concentration. 50 μl compound solution is filled in microtiter plates and 150 μl IPL41 insect medium (33%+15% sugar) is added to obtain a total volume of 200 μper well. Afterwards the plates are sealed with parafilm through which a mixed population of the green peach aphid (Myzus persicae) can suck on the compound preparation.
(§6) After 5 days mortality in % is determined. 100% means all aphids have been killed and 0% means none of the aphids have been killed.

[8] = system: green peach aphid (Myzus persicae); assay: Myzus persicae spray test; conditions: in Brassica rapa, foliar, 120 h, read-out: mortality in %
Procedure: Myzus persicae—spray test Solvent: 78.0 parts by weight acetone • 1.5 parts by weight dimethylformamide Emulsifier: alkylarylpolyglycol ether
as §5, with “solvents” for “solvent,”, “and” for “and the concentrate”
Chinese cabbage (Brassica pekinensis) leaf disks infected with all instars of the green peach aphid (Myzus persicae), are sprayed with a preparation of the active ingredient of the desired concentration.
as §6

With O=C(Nc1nc(-c2c(F)cccc2F)no1)c1cccnc1C(F)(F)F [Compound I-1-1, N-[3-(2,6-Difluorophenyl)-1,2,4-oxadiazol-5-yl]-2-(trifluoromethyl)nicotinamide] the mortality at 500 g/ha [1] was 80%, the mortality at 100 g/ha [2] was 100% and the mortality at 500 g/ha [2] was 100%. It also gave a mortality at 500 g/ha [3] of 70%, a mortality at 100 g/ha [4] of 100% and a mortality at 500 g/ha [4] of 100%.
Work on O=C(Nc1nc(-c2ccccc2C(F)(F)F)no1)c1cccnc1C(F)(F)F [Compound I-1-8, 2-(trifluoromethyl)-N-{3-[2-(trifluoromethyl)phenyl]-1,2,4-oxadiazol-5-yl}nicotinamide] yielded a mortality at 500 g/ha [5] of 90%, a mortality at 100 g/ha [3] of 100% and a mortality at 500 g/ha [3] of 100%. It also gave a mortality at 500 g/ha [6] of 100% and a mortality at 500 g/ha [4] of 100%.
For O=C(Nc1nc(-c2c(F)ccc(Br)c2F)no1)c1cccnc1C(F)(F)F [Compound I-1-12, N-[3-(3-bromo-2,6-difluorophenyl)-1,2,4-oxadiazol-5-yl]-2-(trifluoromethyl)nicotinamide], the mortality at 100 g/ha [3] was 100%, the mortality at 500 g/ha [3] was 100% and the mortality at 100 g/ha [4] was 100%. The mortality at 500 g/ha [4] was 83%.
For N#Cc1c(-c2c(F)cccc2F)nsc1NC(=O)c1cccnc1C(F)(F)F [Compound I-2-1, N-[4-Cyano-3-(2,6-difluorophenyl)-1,2-thiazol-5-yl]-2-(trifluoromethyl)nicotinamide], the mortality at 500 g/ha [5] was 100%, the mortality at 20 ppm [7] was 90% and the mortality at 100 g/ha [2] was 100%. For the same compound, the mortality at 500 g/ha [2] was 100% and the mortality at 500 g/ha [4] was 100%.
N#Cc1c(-c2ccccc2Cl)nsc1NC(=O)c1cccnc1Cl [Compound I-2-6, 2-Chloro-N-[3-(2-chlorophenyl)-4-cyano-1,2-thiazol-5-yl]nicotinamide] gave a mortality at 500 g/ha [2] of 100%, a mortality at 500 g/ha [8] of 100% and a mortality at 500 g/ha [3] of 70%. The mortality at 500 g/ha [4] was 83%.
For N#Cc1c(-c2ccccc2C(F)(F)F)nsc1NC(=O)c1cccnc1Cl [Compound I-2-7, 2-Chloro-N-{4-cyano-3-[2-(trifluoromethyl)phenyl]-1,2-thiazol-5-yl}nicotinamide], the mortality at 500 g/ha [2] was 100%, the mortality at 100 g/ha [3] was 90% and the mortality at 500 g/ha [3] was 90%. It also gave a mortality at 500 g/ha [4] of 100%.
Work on N#Cc1sc(NC(=O)c2cccnc2C(F)(F)F)nc1-c1ccccc1C(F)(F)F [Compound I-3-2, N-{5-Cyano-4-[2-(trifluoromethyl)phenyl]-1,3-thiazol-2-yl}-2-(trifluoromethyl)nicotinamide] yielded a mortality at 500 g/ha [1] of 100%, a mortality at 100 g/ha [2] of 100% and a mortality at 500 g/ha [2] of 100%. It also gave a mortality at 100 g/ha [3] of 100%, a mortality at 500 g/ha [3] of 100% and a mortality at 100 g/ha [4] of 100%. The mortality at 500 g/ha [4] was 100%.
